Experiments:
Format in all cases: cell-based
[1] = target: T1, 3-hydroxy-3-methylglutaryl-coenzyme A reductase (Homo sapiens) (UniProt P04035); assay: Tested for the percent inhibition against HMG-CoA reductase transcription in HepG2 cells; set-up: concentration or dose not given beside the values; settings: concentration not given here
T1 sequence (whole entry): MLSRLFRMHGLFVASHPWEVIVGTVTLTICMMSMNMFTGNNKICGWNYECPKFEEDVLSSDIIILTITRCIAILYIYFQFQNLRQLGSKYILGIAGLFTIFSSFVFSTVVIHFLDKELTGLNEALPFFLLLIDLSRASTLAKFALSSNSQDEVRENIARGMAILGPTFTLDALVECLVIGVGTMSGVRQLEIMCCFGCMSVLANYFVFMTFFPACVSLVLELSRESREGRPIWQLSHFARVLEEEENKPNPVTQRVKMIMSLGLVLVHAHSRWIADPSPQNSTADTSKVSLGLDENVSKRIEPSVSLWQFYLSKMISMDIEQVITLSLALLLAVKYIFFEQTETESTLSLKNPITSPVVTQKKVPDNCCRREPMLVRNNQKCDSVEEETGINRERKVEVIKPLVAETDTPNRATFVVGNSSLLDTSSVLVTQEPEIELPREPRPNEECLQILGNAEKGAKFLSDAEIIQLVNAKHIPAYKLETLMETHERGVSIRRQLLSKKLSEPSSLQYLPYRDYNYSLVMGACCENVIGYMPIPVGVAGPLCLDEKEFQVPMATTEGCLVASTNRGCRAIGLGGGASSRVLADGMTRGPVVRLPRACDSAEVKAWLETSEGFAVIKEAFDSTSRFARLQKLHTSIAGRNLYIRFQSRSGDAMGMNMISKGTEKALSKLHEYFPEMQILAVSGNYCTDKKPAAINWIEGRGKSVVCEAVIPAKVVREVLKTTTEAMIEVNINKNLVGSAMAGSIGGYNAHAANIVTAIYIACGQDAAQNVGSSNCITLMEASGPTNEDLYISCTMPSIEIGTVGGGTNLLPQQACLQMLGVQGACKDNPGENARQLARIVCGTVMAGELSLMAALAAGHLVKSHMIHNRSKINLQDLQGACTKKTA

[2] = target: T1, 3-hydroxy-3-methylglutaryl-coenzyme A reductase (Homo sapiens); assay: Tested for its percent inhibition against HMG-CoA reductase transcription in HepG2 cells in HMG-CoA reductase m-RNA assay; settings: concentration not given here
[3] = target: T1, 3-hydroxy-3-methylglutaryl-coenzyme A reductase (Homo sapiens); assay: Tested for its percent inhibition against HMG-CoA reductase transcription in HepG2 cells in HMG-CoA reductase assay; settings: concentration not given here
[4] = target: T2, 3-hydroxy-3-methylglutaryl-coenzyme A reductase (Homo sapiens, UniProt P04035); assay: Tested for its inhibitory activity against HMG-CoA reductase transcription in HepG2 cells
T2 sequence (P04035 whole entry): T1 sequence (whole entry)

[5] = target: T1, 3-hydroxy-3-methylglutaryl-coenzyme A reductase (Homo sapiens); assay: Tested for its percent inhibition against HMG-CoA reductase transcription in HepG2 cells in LDL-receptor binding assay; settings: concentration not given here

| SMILES | inhibition [1] [%] | further results |
| --- | --- | --- |
| CC(C)CCCC[C@@H]1C[C@H](/C=C/[C@]2(C)CC[C@@H](O)CC2)[C@@H](O)[C@H]1O (stereo in doubt; 37) | 0 |  |
| CC(C)(O)CCCCc1ccc(/C=C/[C@]2(C)CC[C@@H](O)CC2)cc1 | 0 |  |
| CC(C)(O)CCCC[C@H]1CC[C@@H](/C=C/[C@]2(C)CC[C@@H](O)CC2)C1 (stereo in doubt; 6) | 0 |  |
| CC(C)(O)CCCCc1cccc(/C=C/[C@]2(C)CC[C@@H](O)CC2)c1 | 46.3 | inhibition [2]: 72.7%; inhibition [3]: 29.7%; IC50 [4]: 10 µM |
| CC(C)(O)CCCCc1ccc(CC[C@]2(C)CC[C@@H](O)CC2)cc1 | 0 |  |
| CC(C)CCCC[C@@H]1C[C@H](/C=C/[C@]2(C)CC[C@@H](O)CC2)[C@@H](O)[C@H]1O (stereo in doubt; 7) | 0 |  |
| CC(C)(O)CCCCc1cccc(CC[C@]2(C)CC[C@@H](O)CC2)c1 | 29.3 |  |
| C[C@H](CCCC(C)(C)O)[C@H]1CC[C@H]2[C@@H]3CC=C4C[C@@H](O)CC[C@]4(C)[C@H]3CC[C@]12C | 70 | inhibition [2]: 58.2%; inhibition [3]: 48.4%; inhibition [5]: 64%; IC50 [4]: 0.3 µM |
| CC(C)(O)CCCC[C@H]1CC[C@@H](/C=C/[C@]2(C)CC[C@@H](O)CC2)C1 (stereo in doubt; 28) | 0 |  |
| CC(C)(O)CCCC[C@H]1CC[C@@H](CC[C@]2(C)CC[C@@H](O)CC2)C1 | 0 |  |

Source: ChEMBL document CHEMBL1127754, “Design and synthesis of seco-oxysterol analogs as potential inhibitors of 3-hydroxy-3-methylglutaryl-coenzyme A (HMG-CoA) reductase gene transcription” (J Med Chem, 1994)
